Experimental data from patent publication US20080021026A1, “BENZOTHIOPHENE INHIBITORS OF RHO KINASE” (priority 2006, published 2008).
Read-outs that look alike come from different tables or passages of the source.

Assays:
[1] = biological target: T1, recombinant N-terminal GST-tagged human Rho kinase 1 (ROCK1, amino acids 1-535) (Homo sapiens, UniProt Q13464); assay: In vitro Rho kinase assay (luciferase-based ATP consumption), ROCK1; type: biochemical
T1 construct: ROCK1, amino acids 1-535; purchased Invitrogen Inc. PV-3691
T1 sequence (Q13464 1-535): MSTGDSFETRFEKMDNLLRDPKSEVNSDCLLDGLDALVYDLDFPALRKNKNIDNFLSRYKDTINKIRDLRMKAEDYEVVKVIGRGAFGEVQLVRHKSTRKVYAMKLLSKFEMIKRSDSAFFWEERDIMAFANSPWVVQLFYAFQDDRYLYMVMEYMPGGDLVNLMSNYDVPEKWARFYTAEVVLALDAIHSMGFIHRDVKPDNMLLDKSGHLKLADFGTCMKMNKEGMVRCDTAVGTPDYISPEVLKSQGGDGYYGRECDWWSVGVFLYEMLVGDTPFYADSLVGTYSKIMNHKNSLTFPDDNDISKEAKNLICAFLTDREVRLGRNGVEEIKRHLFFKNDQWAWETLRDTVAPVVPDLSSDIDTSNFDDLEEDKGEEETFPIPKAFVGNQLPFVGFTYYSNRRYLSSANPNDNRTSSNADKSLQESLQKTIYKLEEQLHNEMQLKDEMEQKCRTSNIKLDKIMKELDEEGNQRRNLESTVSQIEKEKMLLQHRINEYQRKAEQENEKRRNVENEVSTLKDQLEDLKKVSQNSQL
Method in brief: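 ATP depletion measured by firefly luciferase luminescence after 2 h at 30 °C, with inhibition raising signal and activity expressed relative to H-1152P. Reaction: 0.82 μg/ml recombinant GST-tagged ROCK1 (aa 1-535), S6 peptide 100 μg/ml, […], pH 7.5 Tris buffer.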

[2] = biological target: T2, recombinant N-terminal GST-tagged human Rho kinase 2 (ROCK2, amino acids 1-552) (Homo sapiens, UniProt O75116); assay: In vitro Rho kinase assay (luciferase-based ATP consumption), ROCK2; type: biochemical
T2 construct: ROCK2, amino acids 1-552; purchased Invitrogen Inc. PV3759
T2 sequence (O75116 1-552): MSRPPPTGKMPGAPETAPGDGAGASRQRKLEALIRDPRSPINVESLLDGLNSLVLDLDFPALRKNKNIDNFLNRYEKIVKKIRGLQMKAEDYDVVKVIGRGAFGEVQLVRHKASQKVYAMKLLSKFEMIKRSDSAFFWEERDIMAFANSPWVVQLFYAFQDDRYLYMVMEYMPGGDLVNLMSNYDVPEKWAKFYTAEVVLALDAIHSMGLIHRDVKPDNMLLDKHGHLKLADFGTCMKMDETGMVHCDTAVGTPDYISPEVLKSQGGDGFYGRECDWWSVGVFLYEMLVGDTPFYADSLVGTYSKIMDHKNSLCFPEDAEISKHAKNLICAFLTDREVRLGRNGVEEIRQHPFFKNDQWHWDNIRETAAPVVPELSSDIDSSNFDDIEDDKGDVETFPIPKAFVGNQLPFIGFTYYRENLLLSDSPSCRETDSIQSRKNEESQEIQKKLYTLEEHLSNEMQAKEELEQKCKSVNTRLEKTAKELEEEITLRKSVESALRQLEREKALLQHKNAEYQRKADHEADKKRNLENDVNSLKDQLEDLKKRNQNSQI
Method in brief: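 Luciferase-based luminescence of leftover ATP after 2 h at 30 °C, where inhibition raises signal, reports activity of GST-tagged ROCK2 (aa 1-552) at 0.82 μg/ml. Conditions: S6 peptide 100 μg/ml, […], pH 7.5 Tris buffer. Results given as percent of H-1152P control activity.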

[3] = recombinant GST-tagged human ROCK1, luciferase-based ATP consumption, read-out: ROCK1 IC50
[4] = recombinant GST-tagged human ROCK2, luciferase-based ATP consumption, read-out: ROCK2 IC50

Cc1c(-c2ccnc(N)n2)sc2ccc(CNC(=O)C=Cc3ccccc3F)cc12 [Example 173, Cc1c(sc2ccc(CNC(═O)C═Cc3ccccc3F)cc12)-c4ccnc(N)n4]
IC50 [1, 3]: > 5 µM
IC50 [2, 4]: < 5 µM

Cc1c(-c2ccnc(N)n2)sc2ccc(CNC(=O)c3ccccc3Cl)cc12 [Example 147, Cc1c(sc2ccc(CNC(═O)c3ccccc3Cl)cc12)-c4ccnc(N)n4]
IC50 ([1]; ROCK1 IC50, recombinant GST-tagged human ROCK1, luciferase-based ATP consumption): > 5 µM
IC50 ([2]; ROCK2 IC50, recombinant GST-tagged human ROCK2, luciferase-based ATP consumption): < 5 µM

Cc1c(-c2ccnc(N)n2)sc2ccc(Nc3cncc(O)c3)cc12 [Example 68, 5-(2-(2-Aminopyrimidin-4-yl)-3-methylbenzo[b]thiophen-5-ylamino)pyridin-3-ol]
IC50 [1, 3]: < 5 µM
IC50 [2, 4]: < 5 µM

Cc1c(-c2ccnc(N)n2)sc2ccc(CNC(=O)C=Cc3ccccc3)cc12 [Example 128, Cc1c(sc2ccc(CNC(═O)C═Cc3ccccc3)cc12)-c4ccnc(N)n4]
IC50 [1, 3]: < 5 µM
IC50 [2, 4]: < 5 µM

CC(=O)NC(Cc1ccc(O)cc1)C(=O)NCc1ccc2sc(-c3ccnc(N)n3)c(C)c2c1 (centres unmarked) [Example 299, CC(═O)N[C](Cc1ccc(O)cc1)C(═O)NCc2ccc3sc(c(C)c3c2)-c4ccnc(N)n4]
IC50 [1, 3]: > 5 µM
IC50 [2, 4]: > 5 µM

Cc1c(C(=O)NCc2ccc3sc(-c4ccnc(N)n4)c(C)c3c2)oc2ccccc12 [Example 197, Cc1c(oc2ccccc12)C(═O)NCc3ccc4sc(c(C)c4c3)-c5ccnc(N)n5]
IC50 [1, 3]: < 5 µM
IC50 [2, 4]: > 5 µM

Cc1c(-c2ccnc(N)n2)sc2ccc(CNC(=O)Cc3c(F)cccc3F)cc12 [Example 188, Cc1c(sc2ccc(CNC(═O)Cc3c(F)cccc3F)cc12)-c4ccnc(N)n4]
IC50 [1, 3]: < 5 µM
IC50 [2, 4]: < 5 µM

Cc1c(-c2ccnc(N)n2)sc2ccc(CNC(=O)c3ccc(C#N)cc3)cc12 [Example 126, Cc1c(sc2ccc(CNC(═O)c3ccc(cc3)C#N)cc12)-c4ccnc(N)n4]
IC50 [1, 3]: < 5 µM
IC50 [2, 4]: < 5 µM

Cc1c(-c2ccnc(N)n2)sc2ccc(CNC(=O)c3ccccc3C=O)cc12 [Example 129, Cc1c(sc2ccc(CNC(═O)c3ccccc3C═O)cc12)-c4ccnc(N)n4]
IC50 [1, 3]: < 5 µM
IC50 [2, 4]: < 5 µM

Cc1c(-c2ccnc(N)n2)sc2ccc(CNC(=O)c3ccncc3)cc12 [Example 110, Cc1c(sc2ccc(CNC(═O)c3ccncc3)cc12)-c4ccnc(N)n4]
IC50 [1, 3]: > 5 µM
IC50 [2, 4]: < 5 µM

Cc1c(-c2ccnc(N)n2)sc2ccc(CNC(=O)c3cc(F)c(Cl)cc3F)cc12 [Example 253, Cc1c(sc2ccc(CNC(═O)c3cc(F)c(Cl)cc3F)cc12)-c4ccnc(N)n4]
IC50 [1, 3]: < 5 µM
IC50 [2, 4]: < 5 µM

Nc1nccc(-c2sc3ccccc3c2Br)n1 [Example 15, 4-(3-Bromobenzo[b]thiophen-2-yl)pyrimidin-2-amine]
IC50 [1, 3]: < 5 µM
IC50 [2, 4]: < 5 µM

Cc1c(-c2ccnc(N)n2)sc2ccc(CNC(=O)C=Cc3ccccc3C(F)(F)F)cc12 [Example 290, Cc1c(sc2ccc(CNC(═O)C═Cc3ccccc3C(F)(F)F)cc12)-c4ccnc(N)n4]
IC50 [1, 3]: > 5 µM
IC50 [2, 4]: > 5 µM

Cc1c(-c2ccnc(N)n2)sc2ccc(Cc3cccc(C#N)c3)cc12 [Example 40, 3-((2-(2-Aminopyrimidin-4-yl)-3-methylbenzo[b]thiophen-5-yl)methyl)benzonitrile]
IC50 [1, 3]: < 5 µM
IC50 [2, 4]: < 5 µM

CCC(=O)C(=O)NCc1ccc2sc(-c3ccnc(N)n3)c(C)c2c1 [Example 99, CCC(═O)C(═O)NCc1ccc2sc(c(C)c2c1)-c3ccnc(N)n3]
IC50 [1, 3]: < 5 µM
IC50 [2, 4]: < 5 µM

Cc1c(-c2ccnc(N)n2)sc2ccc(CNC(=O)c3ccccc3C(F)(F)F)cc12 [Example 243, Cc1c(sc2ccc(CNC(═O)c3ccccc3C(F)(F)F)cc12)-c4ccnc(N)n4]
IC50 [1, 3]: < 5 µM
IC50 [2, 4]: < 5 µM

COc1ccc(C(=O)NCc2ccc3sc(-c4ccnc(N)n4)c(C)c3c2)cc1 [Example 138, COc1ccc(cc1)C(═O)NCc2ccc3sc(c(C)c3c2)-c4ccnc(N)n4]
IC50 [1, 3]: > 5 µM
IC50 [2, 4]: < 5 µM

Cc1cc(C(=O)NCc2ccc3sc(-c4ccnc(N)n4)c(C)c3c2)n[nH]1 [Example 113, Cc1cc(n[nH]1)C(═O)NCc2ccc3sc(c(C)c3c2)-c4ccnc(N)n4]
IC50 [1, 3]: > 5 µM
IC50 [2, 4]: < 5 µM

Cc1c(-c2ccnc(N)n2)sc2ccc(CNC(=O)Cc3ccc(O)c(F)c3)cc12 [Example 186, Cc1c(sc2ccc(CNC(═O)Cc3ccc(O)c(F)c3)cc12)-c4ccnc(N)n4]
IC50 [1, 3]: < 5 µM
IC50 [2, 4]: < 5 µM

Cc1c(-c2ccnc(N)n2)sc2ccc(CNC(=O)c3ccccc3[N+](=O)[O-])cc12 [Example 179, Cc1c(sc2ccc(CNC(═O)c3ccccc3[N+]([O−])═O)cc12)-c4ccnc(N)n4]
IC50 [1, 3]: > 5 µM
IC50 [2, 4]: < 5 µM

Cc1c(-c2ccnc(N)n2)sc2ccc(Cc3cccc(C(=O)NCCCN4CCOCC4)c3)cc12 [Example 49, 3-((2-(2-Aminopyrimidin-4-yl)-3-methylbenzo[b]thiophen-5-yl)methyl)-N-(3-morpholinopropyl)benzamide]
IC50 [1, 3]: < 5 µM
IC50 [2, 4]: < 5 µM

Cc1c(-c2ccnc(N)n2)sc2ccc(CNC(=O)c3ccc(Cl)c(Br)c3)cc12 [Example 315, Cc1c(sc2ccc(CNC(═O)c3ccc(Cl)c(Br)c3)cc12)-c4ccnc(N)n4]
IC50 [1, 3]: < 5 µM
IC50 [2, 4]: < 5 µM

COc1ccc(OC)c(Cc2ccc3sc(-c4ccnc(N)n4)c(C)c3c2)c1 [Example 38, 4-(5-(2,5-Dimethoxybenzyl)-3-methylbenzo[b]thiophen-2-yl)pyrimidin-2-amine]
IC50 [1, 3]: > 5 µM
IC50 [2, 4]: > 5 µM

CC1=NN(c2ccc(C(=O)NCc3ccc4sc(-c5ccnc(N)n5)c(C)c4c3)cc2)C(=O)C1 [Example 295, CC1═NN(C(═O)C1)c2ccc(cc2)C(═O)NCc3ccc4sc(c(C)c4c3)-c5ccnc(N)n5]
IC50 [1, 3]: < 5 µM
IC50 [2, 4]: > 5 µM

Cc1c(-c2ccnc(N)n2)oc2ccc(Br)cc12 [Example 91, 4-(5-Bromo-3-methylbenzofuran-2-yl)pyrimidin-2-amine]
IC50 [1, 3]: < 5 µM
IC50 [2, 4]: < 5 µM

Cc1c(-c2ccnc(N)n2)sc2ccc(Nc3cccc(N)c3)cc12 [Example 57, N^1-(2-(2-Aminopyrimidin-4-yl)-3-methylbenzo[b]thiophen-5-yl)benzene-1,3-diamine]
IC50 [1, 3]: < 5 µM
IC50 [2, 4]: < 5 µM

Cc1c(-c2ccnc(N)n2)sc2ccc(CNC(=O)CC3Cc4ccccc4C3)cc12 [Example 198, Cc1c(sc2ccc(CNC(═O)CC3Cc4ccccc4C3)cc12)-c5ccnc(N)n5]
IC50 [1, 3]: > 5 µM
IC50 [2, 4]: < 5 µM

Cc1c(-c2ccnc(N)n2)sc2ccccc12 [Example 14, 4-(3-Methylbenzo[b]thiophen-2-yl)pyrimidin-2-amine]
IC50 [1, 3]: < 5 µM
IC50 [2, 4]: < 5 µM

Cc1ccc(SCC(=O)NCc2ccc3sc(-c4ccnc(N)n4)c(C)c3c2)cc1 [Example 223, Cc1ccc(SCC(═O)NCc2ccc3sc(c(C)c3c2)-c4ccnc(N)n4)cc1]
IC50 [1, 3]: > 5 µM
IC50 [2, 4]: < 5 µM

Cc1c(-c2ccnc(N)n2)sc2ccc(CNC(=O)c3ccc(Cl)nc3)cc12 [Example 148, Cc1c(sc2ccc(CNC(═O)c3ccc(Cl)nc3)cc12)-c4ccnc(N)n4]
IC50 [1, 3]: > 5 µM
IC50 [2, 4]: < 5 µM

Cc1c(-c2ccnc(N)n2)sc2ccc(CNC(=O)Cc3cccc(O)c3)cc12 [Example 140, Cc1c(sc2ccc(CNC(═O)Cc3cccc(O)c3)cc12)-c4ccnc(N)n4]
IC50 [1, 3]: > 5 µM
IC50 [2, 4]: < 5 µM

Cc1c(-c2cc(N)ncn2)sc2ccc(Cl)cc12 [Example 8, 6-(5-Chloro-3-methylbenzo[b]thiophen-2-yl)pyrimidin-4-amine]
IC50 [1, 3]: > 5 µM
IC50 [2, 4]: > 5 µM

Cc1c(-c2ccnc(N)n2)sc2ccc(CNC(=O)C=Cc3ccc(Cl)cc3)cc12 [Example 224, Cc1c(sc2ccc(CNC(═O)C═Cc3ccc(Cl)cc3)cc12)-c4ccnc(N)n4]
IC50 [1, 3]: > 5 µM
IC50 [2, 4]: < 5 µM

COc1ccccc1Cc1ccc2sc(-c3ccnc(N)n3)c(C)c2c1 [Example 37, 4-(5-(2-Methoxybenzyl)-3-methylbenzo[b]thiophen-2-yl)pyrimidin-2-amine]
IC50 [1, 3]: > 5 µM
IC50 [2, 4]: > 5 µM

CCN(CC)CCNC(=O)c1cccc(Cc2ccc3sc(-c4ccnc(N)n4)c(C)c3c2)c1 [Example 47, 3-((2-(2-Aminopyrimidin-4-yl)-3-methylbenzo[b]thiophen-5-yl)methyl)-N-(2-(diethylamino)ethyl)benzamide]
IC50 [1, 3]: < 5 µM
IC50 [2, 4]: < 5 µM

Cc1c(-c2ccnc(N)n2)sc2cnccc12 [Example 18, 4-(3-Methylthieno[2,3-c]pyridin-2-yl)pyrimidin-2-amine]
IC50 [1, 3]: < 5 µM
IC50 [2, 4]: < 5 µM

Cc1c(-c2ccnc(N)n2)sc2ccc(CNC(=O)C3CCCO3)cc12 (centres unmarked) [Example 106, Cc1c(sc2ccc(CNC(═O)C3CCCO3)cc12)-c4ccnc(N)n4]
IC50 [1, 3]: > 5 µM
IC50 [2, 4]: < 5 µM

CC(=O)Oc1cccc(Cc2ccc3sc(-c4ccnc(N)n4)c(C)c3c2)c1 [Example 28, 3-((2-(2-Aminopyrimidin-4-yl)-3-methylbenzo[b]thiophen-5-yl)methyl)phenyl acetate]
IC50 [1, 3]: < 5 µM
IC50 [2, 4]: < 5 µM

Cc1c(-c2ccnc(N)n2)sc2ccc(CNC(=O)C(C)(C)C)cc12 [Example 100, Cc1c(sc2ccc(CNC(═O)C(C)(C)C)cc12)-c3ccnc(N)n3]
IC50 [1, 3]: < 5 µM
IC50 [2, 4]: < 5 µM

Cc1c(-c2ccnc(N)n2)sc2ccc(Oc3ccccc3)cc12 [Example 79, 4-(3-Methyl-5-phenoxybenzo[b]thiophen-2-yl)pyrimidin-2-amine]
IC50 [1, 3]: < 5 µM
IC50 [2, 4]: < 5 µM
